# Test results from patent US8476265B2, “Compounds-801” (AstraZeneca AB, priority 2010, dated 2013).
# Columns and labels:
# [1] = target: T1, Adrenergic β2 (Homo sapiens, UniProt P07550); experiment: Adrenergic β2 mediated cAMP production in H292 cells (AlphaScreen), concentration response; format: cell-based; conditions: for EC50: 60 min, 300 μM rolipram, read-out: β2 pEC50 (converted); for β2 Intrinsic Activity: fraction relative to the maximum activity determined for formoterol
# T1 construct: Adherent H292 cells are removed from tissue culture flasks by treatment with Accutase™ cell detachment solution; endogenous in cells; host or cells: H292 cells
# T1 sequence (P07550 whole entry): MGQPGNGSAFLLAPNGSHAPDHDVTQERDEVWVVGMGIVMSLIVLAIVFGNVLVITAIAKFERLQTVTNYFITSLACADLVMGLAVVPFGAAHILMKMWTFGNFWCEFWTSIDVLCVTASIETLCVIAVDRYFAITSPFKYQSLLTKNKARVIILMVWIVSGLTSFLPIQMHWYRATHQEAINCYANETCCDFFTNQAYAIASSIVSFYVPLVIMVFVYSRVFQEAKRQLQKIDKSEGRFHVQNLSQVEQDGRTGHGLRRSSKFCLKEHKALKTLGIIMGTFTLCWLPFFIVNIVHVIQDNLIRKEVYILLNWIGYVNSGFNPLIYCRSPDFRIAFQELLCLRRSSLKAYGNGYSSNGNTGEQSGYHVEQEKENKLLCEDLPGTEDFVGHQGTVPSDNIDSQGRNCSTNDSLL
# Description: Assay for Adrenergic 132 Mediated cAMP Production
# H292 cells are grown in 225 cm2 flasks incubator at 37° C., 5% CO2 in RPMI medium containing 10% (v/v) FBS (foetal bovine serum) and 2 mM L-glutamine.
# Adherent H292 cells re removed from tissue culture flasks by treatment with Accutase™ cell detachment solution for 15 minutes. Flasks are incubated for 15 minutes in a humidified incubator at 37° C., 5% CO2. Detached cells are re-suspended in RPMI media (containing 10% (v/v) FBS and 2 mM L-glutamine) at 0.1×10^6 cells per mL. 10000 cells in 100 μl, are added to each well of a tissue-culture-treated 96-well plate and the cells incubated overnight in a humidified incubator at 37° C., 5% CO2. The culture media is removed and cells are washed twice with 100 μL assay buffer and replaced with 50 μl assay buffer (HBSS solution containing 10 mM HEPES pH7.4 and 5 mM glucose). Cells are rested at room temperature for 20 minutes after which time 25 μl of rolipram (1.2 mM made up in assay buffer containing 2.4% (v/v) dimethylsulphoxide) is added. Cells are incubated with rolipram for 10 minutes after which time test compounds are added and the cells are incubated for 60 minutes at room temperature. The final rolipram concentration in the assay is 300 μM and final vehicle concentration is 1% (v/v) dimethylsulphoxide. The reaction is stopped by removing supernatants, washing once with 100 μL assay buffer and replacing with 50 μL lysis buffer. The cell monolayer is frozen at −80° C. for 30 minutes (or overnight).
# AlphaScreen™ cAMP detection
# The concentration of cAMP (cyclic adenosine monophosphate) in the cell lysate is determined using AlphaScreen™ methodology. The frozen cell plate is thawed for 20 minutes on a plate shaker then 10 μL of the cell lysate is transferred to a 96-well white plate. 40 μL of mixed AlphaScreen™ detection beads pre-incubated with biotinylated cAMP, is added to each well and the plate incubated at room temperature for 3 hours in the dark. The AlphaScreen™ signal is measured using an EnVision spectrophotometer (Perkin-Elmer Inc.) with the recommended manufacturer's settings. cAMP concentrations are determined by reference to a calibration curve determined in the same experiment using standard cAMP concentrations. Concentration response curves for agonists are constructed and data is fitted to a four parameter logistic equation to determine both the pEC50 and Intrinsic Activity. Intrinsic Activity is expressed as a fraction relative to the maximum activity determined for formoterol in each experiment.
# [2] = target: T2, human muscarinic acetylcholine M3 receptor (Homo sapiens, UniProt P20309); experiment: Muscarinic 3 receptor binding assay ([3H]NMS competition, SPA), pIC50; conditions: [3H]NMS 0.1 nM, CHO-K1 cell membranes expressing human M3 receptor
# T2 construct: expressed in transfected cells; host or cells: CHO-K1 (Chinese Hamster Ovary) cell membranes
# T2 sequence (P20309 whole entry): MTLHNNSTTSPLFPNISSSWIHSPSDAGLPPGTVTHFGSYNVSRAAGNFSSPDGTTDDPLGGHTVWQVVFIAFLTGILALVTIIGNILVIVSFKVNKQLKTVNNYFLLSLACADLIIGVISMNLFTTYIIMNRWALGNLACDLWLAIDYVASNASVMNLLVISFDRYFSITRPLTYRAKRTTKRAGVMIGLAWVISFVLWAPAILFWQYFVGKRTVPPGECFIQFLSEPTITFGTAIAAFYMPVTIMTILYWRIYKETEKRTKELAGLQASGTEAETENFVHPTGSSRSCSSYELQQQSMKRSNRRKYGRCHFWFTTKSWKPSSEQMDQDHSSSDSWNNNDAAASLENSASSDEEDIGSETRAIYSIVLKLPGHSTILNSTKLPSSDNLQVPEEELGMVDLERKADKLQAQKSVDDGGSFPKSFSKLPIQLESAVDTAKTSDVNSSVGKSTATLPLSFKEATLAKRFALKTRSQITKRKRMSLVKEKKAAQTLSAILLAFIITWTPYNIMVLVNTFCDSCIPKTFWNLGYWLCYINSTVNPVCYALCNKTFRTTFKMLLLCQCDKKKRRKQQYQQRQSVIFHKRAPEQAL
# Description: Muscarinic 3 Receptor Binding Assay
# The affinity (pIC50) of compounds binding to the M3 receptor is determined by competition binding of [^3H]N-methyl scopolamine (NMS) to CHO-K1 (Chinese Hamster Ovary) cell membranes expressing the human muscarinic acetylcholine M3 receptor (M3-ACh) in a scintillation proximity assay (SPA) format.
# SPA beads are precoated with membranes and then incubated at 2 mg of beads per well with serial dilutions of compounds of the invention, [^3H]NMS at 0.1 nM, quarter Kd (experimentally determined dissociation constant) and assay buffer (20 mM HEPES pH 7.4 containing 5 mM MgCl2 and 0.1% (w/v) bovine serum albumin). The assay is conducted in a final volume of 200 μL, in the presence of 1% (v/v) dimethyl sulphoxide (DMSO). Total binding of [^3H]NMS is determined in the absence of competing compound and non-specific binding of [^3H]NMS is determined in the presence of 1 μM atropine. The plates are incubated for 16 hours at room temperature and then read on Wallac Microbeta™ using a normalised ^3H protocol. The pIC50, defined as the negative logarithm of the molar concentration of compound required for 50% reduction in specific [^3H]-NMS binding, is determined.
Structure (SMILES),EC50 [1] [nM],β2 Intrinsic Activity [1],IC50 [2] [nM]
"CCN(CCNCCc1ccc(O)c2[nH]c(=O)sc12)C(=O)CCOCCc1cccc(CN2CCC3(CC2)CN(C(=O)c2csc(C(C)C)n2)CCO3)c1OC [Example 68, N-Ethyl-N-(2-(2-(4-hydroxy-2-oxo-2,3-dihydrobenzo[d]thiazol-7-yl)ethylamino)ethyl)-3-(3-((4-(2-isopropylthiazole-4-carbonyl)-1-oxa-4,9-diazaspiro[5.5]undecan-9-yl)methyl)-2-methoxyphenethoxy)propanamide ditrifluoroacetate]",10,0.6,10
"CCN(CCNCCc1ccc(O)c2[nH]c(=O)sc12)C(=O)CCOCCc1cccc(CN2CCC3(CC2)CN(C(=O)c2csc(C(C)C)n2)CCO3)c1F [Example 10, N-Ethyl-3-(2-fluoro-3-((4-(2-isopropylthiazole-4-carbonyl)-1-oxa-4,9-diazaspiro[5.5]undecan-9-yl)methyl)phenethoxy)-N-(2-(2-(4-hydroxy-2-oxo-2,3-dihydrobenzo[d]thiazol-7-yl)ethylamino)ethyl)propanamide ditrifluoroacetate]",31.6,0.8,0.631
"Cc1ccc(CN(CCNCCc2ccc(O)c3c2OCC(=O)N3)C(=O)CCOCCc2cccc(CN3CCC4(CC3)CN(C(=O)c3csc(C(C)C)n3)CCO4)c2F)cc1 [Example 22, 3-(2-Fluoro-3-(4-(2-isopropylthiazole-4-carbonyl)-1-oxa-4,9-diazaspiro[5.5]undecan-9-yl)methyl)phenethoxy)-N-(2-(2-(5-hydroxy-3-oxo-3,4-dihydro-2H-benzo[b][1,4]oxazin-8-yl)ethylamino)ethyl)-N-(4-methylbenzyl)propanamide ditrifluoroacetate]",79.4,1.2,0.251
"CCN(CCNCCc1ccc(O)c2[nH]c(=O)sc12)C(=O)CCOCCc1ccc(OCCCN2CCC3(CC2)CN(C(=O)c2csc(C(C)C)n2)CCO3)cc1 [Example 62, N-Ethyl-N-(2-(2-(4-hydroxy-2-oxo-2,3-dihydrobenzo[d]thiazol-7-yl)ethylamino)ethyl)-3-(4-(3-(4-(2-isopropylthiazole-4-carbonyl)-1-oxa-4,9-diazaspiro[5.5]undecan-9-yl)propoxy)phenethoxy)propanamide ditrifluoroacetate]",100,0.7,0.794
"CCc1nc(C(=O)N2CCOC3(CCN(Cc4cccc(CCOCCC(=O)N(CC)CCNCCc5ccc(O)c6[nH]c(=O)sc56)c4Cl)CC3)C2)cs1 [Example 26, 3-(2-Chloro-3-((4-(2-ethylthiazole-4-carbonyl)-1-oxa-4,9-diazaspiro[5.5]undecan-9-yl)methyl)phenethoxy)-N-ethyl-N-(2-(2-(4-hydroxy-2-oxo-2,3-dihydrobenzo[d]thiazol-7-yl)ethylamino)ethyl)propanamide ditrifluoroacetate]",7.94,0.8,0.631
"CCCN(CCNCCc1ccc(O)c2[nH]c(=O)sc12)C(=O)CCOCCc1ccc(CCN2CCC3(CC2)CN(C(=O)c2csc(CC)n2)CCO3)cc1 [Example 3, 3-(4-(2-(4-(2-Ethylthiazole-4-carbonyl)-1-oxa-4,9-diazaspiro[5.5]undecan-9-yl)ethyl)phenethoxy)-N-(2-(2-(4-hydroxy-2-oxo-2,3-dihydrobenzo[d]thiazol-7-yl)ethylamino)ethyl)-N-propylpropanamide ditrifluoroacetate]",200,1.0,1
"CC(C)c1nc(C(=O)N2CCOC3(CCN(Cc4cccc(OCCOCCC(=O)N(CCNCCc5ccc(O)c6c5OCC(=O)N6)C5CCCCC5)c4)CC3)C2)cs1 [Example 59, N-Cyclohexyl-N-(2-(2-(5-hydroxy-3-oxo-3,4-dihydro-2H-benzo[b][1,4]oxazin-8-yl)ethylamino)ethyl)-3-(2-(3-((4-(2-isopropylthiazole-4-carbonyl)-1-oxa-4,9-diazaspiro[5.5]undecan-9-yl)methyl)phenoxy)ethoxy)propanamide ditrifluoroacetate]",631,0.9,0.251

# The next lines start with the values.
EC50 [1] [nM],β2 Intrinsic Activity [1],IC50 [2] [nM],Structure (SMILES)
251,0.9,3.98,"O=C1COc2c(CCNCCN(C(=O)CCOCCc3cccc(CN4CCC5(CC4)CN(C(=O)c4cc6ccccc6s4)CCO5)c3)C3CCCCC3)ccc(O)c2N1 [Example 81, 3-(3-((4-(Benzo[b]thiophene-2-carbonyl)-1-oxa-4,9-diazaspiro[5.5]undecan-9-yl)methyl)phenethoxy)-N-cyclohexyl-N-(2-(2-(5-hydroxy-3-oxo-3,4-dihydro-2H-benzo[b][1,4]oxazin-8-yl)ethylamino)ethyl)propanamide]"
126,1.0,0.251,"CC(C)Cc1nc(C(=O)N2CCOC3(CCN(Cc4cccc(CCOCCC(=O)N(CCNCCc5ccc(O)c6c5OCC(=O)N6)C5CCCCC5)c4)CC3)C2)cs1 [Example 94, N-Cyclohexyl-N-(2-(2-(5-hydroxy-3-oxo-3,4-dihydro-2H-benzo[b][1,4]oxazin-8-yl)ethylamino)ethyl)-3-(3-((4-(2-isobutylthiazole-4-carbonyl)-1-oxa-4,9-diazaspiro[5.5]undecan-9-yl)methyl)phenethoxy)propanamide]"
12.6,1.0,2.51,"CCN(CCNCCc1ccc(O)c2[nH]c(=O)sc12)C(=O)CCOCCc1cc(CCN2CCC3(CC2)CN(C(=O)c2csc(C(C)C)n2)CCO3)cs1 [Example 78, N-Ethyl-N-(2-(2-(4-hydroxy-2-oxo-2,3-dihydrobenzo[d]thiazol-7-yl)ethylamino)ethyl)-3-(2-(4-(2-(4-(2-isopropylthiazole-4-carbonyl)-1-oxa-4,9-diazaspiro[5.5]undecan-9-yl)ethyl)thiophen-2-yl)ethoxy)propanamide ditrifluoroacetate]"
50.1,1.0,0.251,"COCCCN(CCNCCc1ccc(O)c2c1OCC(=O)N2)C(=O)CCOCCc1cccc(CN2CCC3(CC2)CN(C(=O)c2csc(C(C)C)n2)CCO3)c1Cl [Example 71, 3-(2-Chloro-3-((4-(2-isopropylthiazole-4-carbonyl)-1-oxa-4,9-diazaspiro[5.5]undecan-9-yl)methyl)phenethoxy)-N-(2-(2-(5-hydroxy-3-oxo-3,4-dihydro-2H-benzo[b][1,4]oxazin-8-yl)ethylamino)ethyl)-N-(3-methoxypropyl)propanamide ditrifluoroacetate]"
50.1,1.0,0.631,"CCc1nc(C(=O)N2CCOC3(CCN(CCc4ccc(CCOCCC(=O)N(CCCCCCO)CCNCCc5ccc(O)c6[nH]c(=O)sc56)cc4)CC3)C2)cs1 [Example 76, 3-(4-(2-(4-(2-Ethylthiazole-4-carbonyl)-1-oxa-4,9-diazaspiro[5.5]undecan-9-yl)ethyl)phenethoxy)-N-(2-(2-(4-hydroxy-2-oxo-2,3-dihydrobenzo[d]thiazol-7-yl)ethylamino)ethyl)-N-(6-hydroxyhexyl)propanamide diformate]"
